Source: BindingDB's records for doi:10.1021/acschembio.6b00596 (Jagiellonian University, 2016)
pKd: −log10 of the molar value.

Experiments:
[1] = biological target: T1, E3 ubiquitin-protein ligase Mdm2 [1-118] (Homo sapiens, UniProt Q00987); test: NMR Measurements; details: pH 7.4; 15 °C
T1 construct: 1-118

[2] = biological target: T2, E3 ubiquitin-protein ligase Mdm2 [1-118,T47W] (Homo sapiens, UniProt Q00987, T47W); test: Microscale Thermophoresis (MT) Binding Assay; details: pH 7.4; 25 °C
T2 construct: 1-118
Procedure: Experiments were performed in 50 mM phosphate buffer at pH 7.4 containing 150 mM NaCl, 5 mM DTT, and 5% DMSO.

| pKd [1] | pKd [2] | Compound |
| --- | --- | --- |
| 4.74 | 4.54 | O=C1OC(O)(Cc2ccc(F)cc2)C(c2c[nH]c3cc(Cl)ccc23)=C1Cc1ccc(Cl)cc1 (centres undefined) [3-(4-Chlorobenzyl)-4-(6-chloro-1H-indol-3-yl)-5-(4-fluorobenzyl)-5-hydroxy-1,5-dihydro-2H-furan-2-one (2c)] |
| 4.07 | 5.82 | O=C1OC(O)(Cc2ccc(Cl)cc2)C(Cc2ccc(Cl)cc2)=C1c1c[nH]c2cc(Cl)ccc12 (centres undefined) [4,5-di(4-chlorobenzyl)-3-(6-chloro-1H-indol-3-yl)-5-hydroxy-1,5-dihydro-2H-furan-2-one (2b)] |
| – | 4.59 | O=C1OC(O)(Cc2ccc(F)cc2)C(Cc2ccc(Cl)cc2)=C1c1c[nH]c2cc(Cl)ccc12 (centres undefined) [4-(4-chlorobenzyl)-3-(6-chloro-1H-indol-3-yl)-5-(4-fluorobenzyl)-5-hydroxy-1,5-dihydro-2H-furan-2-one (2d)] |
| 4.22 | 5.89 | O=C1OC(O)(Cc2ccc(Cl)cc2)C(c2c[nH]c3cc(Cl)ccc23)=C1c1ccc(Cl)cc1 (centres undefined) [5-(4-Chlorobenzyl)-4-(6-chloro-1H-indol-3-yl)-3-(4-chlorophenyl)-5-hydroxy-1,5-dihydro-2H-furan-2-one (2e)] |
| 4.17 | 5.15 | O=C1OC(O)(Cc2ccc(Cl)cc2)C(c2ccc(Cl)cc2)=C1c1c[nH]c2cc(Cl)ccc12 (centres undefined) [5-(4-chlorobenzyl)-3-(6-chloro-1H-indol-3-yl)-4-(4-chlorophenyl)-5-hydroxy-1,5-dihydro-2H-furan-2-one (2f)] |
| 4.40 | 5.68 | O=C1C(c2c[nH]c3cc(Cl)ccc23)=C(c2ccc(Cl)cc2)C(O)N1Cc1ccc(Cl)cc1 (centres undefined) [N-(4-Chlorobenzyl)-3-(6-chloro-1H-indol-3-yl)-4-(4-chlorophenyl)-5-hydroxy-1,5-dihydro-2H-pyrrol-2-on (1h)] |
| 3.79 | 4.61 | O=C1C(c2ccc(Cl)cc2)=C(c2c[nH]c3cc(Cl)ccc23)C(O)N1Cc1ccc(Cl)cc1 (centres undefined) [N-(4-chlorobenzyl)-4-(6-chloro-1H-indol-3-yl)-3-(4-chlorophenyl)-5-hydroxy-1,5-dihydro-2H-pyrrol-2-on (1g)] |
| > 6.00 | 6.30 | CN1C(=O)C(Cc2ccc(Cl)cc2)=C(c2c[nH]c3cc(Cl)ccc23)C1(O)Cc1ccc(Cl)cc1 (centres undefined) [N-Methyl-3,5-di(4-chlorobenzyl)-4-(6-chloro-1H-indol-3-yl)-5-hydroxy-1,5-dihydro-2H-pyrrol-2-one (1a)] |
| 3.44 | 4.39 | CN1C(=O)C(c2ccc(Cl)cc2)=C(c2cn(C)c3cc(Cl)ccc23)C1(O)Cc1ccc(Cl)cc1 (centres undefined) [N-Methyl-5-(4-chlorobenzyl)-4-(6-chloro-1-methyl-1H-indol-3-yl)-3-(4-chlorophenyl)-5-hydroxy-1,5-dihydro-2H-pyrrol-2-one (1e)] |
| 4.29 | 4.73 | CN1C(=O)C(c2ccc(Cl)cc2)=C(c2c[nH]c3cc(Cl)ccc23)C1(O)Cc1ccc(Cl)cc1 (centres undefined) [N-Methyl-5-(4-chlorobenzyl)-4-(6-chloro-1H-indol-3-yl)-3-(4-chlorophenyl)-5-hydroxy-1,5-dihydro-2H-pyrrol-2-one (1c)] |
| 4.25 | – | CN1C(=O)C(c2c[nH]c3cc(Cl)ccc23)=C(Cc2ccc(Cl)cc2)C1(O)Cc1ccc(Cl)cc1 (centres undefined) [N-methyl-4,5-di(4-chlorobenzyl)-3-(6-chloro-1H-indol-3-yl)-5-hydroxy-1,5-dihydro-2H-pyrrol-2-one (1b)] |
| 3.61 | 4.52 | CN1C(=O)C(c2cn(C)c3cc(Cl)ccc23)=C(c2ccc(Cl)cc2)C1(O)Cc1ccc(Cl)cc1 (centres undefined) [N-methyl-5-(4-chlorobenzyl)-3-(6-chloro-1-methyl-1H-indol-3-yl)-4-(4-chlorophenyl)-5-hydroxy-1,5-dihydro-2H-pyrrol-2-one (1f)] |
| 3.72 | 4.56 | CN1C(=O)C(c2c[nH]c3cc(Cl)ccc23)=C(c2ccc(Cl)cc2)C1(O)Cc1ccc(Cl)cc1 (centres undefined) [N-methyl-5-(4-chlorobenzyl)-3-(6-chloro-1H-indol-3-yl)-4-(4-chlorophenyl)-5-hydroxy-1,5-dihydro-2H-pyrrol-2-one (1d)] |
